In series [1] the test system is XIAP mRNA. Nature of the series: XIAP mRNA knock-down in H460 cells (real-time RT-PCR / TaqMan). The format is cell-based, human. To be noted: 2 × 2 MBO; NCI-H460 cells, 9 hours post-transfection; relative level (mock control 1.01). (Real-time PCR tracks product formation cycle by cycle.)
The test system of series [2] is XIAP mRNA. Described as above. The format is cell-based, human. The settings on record: real-time PCR, 1.2 μM, 6 hours of transfection (FIG. 6). The method, boiled down:
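NCI-H460 cells transfected with phosphorothioate antisense oligonucleotides via Lipofectamine 2000; RNA isolated after 6 h treatment. XIAP mRNA quantified by one-step TaqMan real-time RT-PCR, comparative Ct (threshold 30× baseline SD), normalized to GAPDH and expressed relative to untreated control cells.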

Another series has as its system pro-caspase-3, PARP. Nature of the series: Pro-caspase-3 and PARP protein in H460 cells (western blot). The format is cell-based, human. To be noted: 1.2 μM. As for the experimental part:
One day prior to transfection, H460 cells were plated in 6- or 96-well tissue culture plates. Phosphorothioate antisense oligonucleotides were delivered into cells with Lipofectamine 2000 (Life Technologies) in the form of liposome-oligonucleotide complexes. Following a 4.5 or 6 h transfection, the transfection medium was replaced with RPMI medium containing 10% FBS, and the cells incubated for another 24 or 48 h.
The cells or tumor tissue samples were lysed with ice-cold lysis buffer (50 mM Tris, 150 mM NaCl, 2.5 mM EDTA, 0.1% SDS, 0.5% sodium deoxycholate, 1% NP-40, 0.02% sodium azide) containing protease inhibitors (Complete-Mini protease inhibitor tablets; Boehringer Mannheim GmBH, Mannheim, Germany). After incubation for 30 min on ice, samples were centrifuged at 10,000 rpm for 15 min, and stored at −20° C. Protein content in the lysed extracts was determined using a detergent-compatible Bio-Rad assay (Bio-Rad Labs, Hercules, Calif.). Equal amounts of protein (40 μg/lane) were separated on 12% SDS-polyacrylamide gels or 4-15% gradient SDS-polyacrylamide pre-made gels (Bio-Rad) and transferred to nitrocellulose membranes. Primary antibodies against XIAP, Bcl-2 (DAKO, Glostrup, Denmark), Bax (Sigma, St. Louis, Mo.), β-actin (Sigma), caspase-3 (BD PharMingen, San Diego, Calif.), and PARP (BD PharMingen) were used. The secondary antibody was the appropriate horseradish-conjugated anti-mouse or anti-rabbit IgG (Promega, Madison, Wis.). Proteins were detected by enhanced chemiluminescence (ECL; Amersham Pharmacia Biotech, Buckinghamshire, England) and visualized after exposure to Kodak autoradiography film. Scanning densitometry (Molecular Dynamics, Sunnyvale, Calif.) was performed to quantify band intensities by volume/area integration. The amount of XIAP, caspase-3, Bcl-2 and Bax in cells was normalized to their respective lane β-actin levels, upon stripping and reprobing.
(In western blotting, separated proteins are transferred to a membrane and probed.)

For another series, the system named is human XIAP protein. Nature of the series: XIAP protein in H460 tumor xenografts (western blot). The format is in vivo, mouse xenograft. As for the experimental part: To correlate the tumor growth inhibitory effects of G4 AS oligonucleotides with XIAP protein expression, we examined the changes in XIAP expression at the end of the in vivo treatment with 15 mg/kg of G4 AS and SC oligonucleotides. At day 21 or 24 post-tumor inoculation when tumors reached 1 cm^3 in size (FIG. 17), tumors were harvested and lysates from tumor homogenates were used for western blot analysis. XIAP and β-actin antibodies against the human protein were used, allowing for determination of human XIAP levels obtained from tumor cells specimens without contamination from XIAP derived from mouse cells. […]
The cells or tumor tissue samples were lysed with ice-cold lysis buffer (50 mM Tris, 150 mM NaCl, 2.5 mM EDTA, 0.1% SDS, 0.5% sodium deoxycholate, 1% NP-40, 0.02% sodium azide) containing protease inhibitors (Complete-Mini protease inhibitor tablets; Boehringer Mannheim GmBH, Mannheim, Germany). […] Protein content in the lysed extracts was determined using a detergent-compatible Bio-Rad assay (Bio-Rad Labs, Hercules, Calif.). […] Proteins were detected by enhanced chemiluminescence (ECL; Amersham Pharmacia Biotech, Buckinghamshire, England) and visualized after exposure to Kodak autoradiography film. Scanning densitometry (Molecular Dynamics, Sunnyvale, Calif.) was performed to quantify band intensities by volume/area integration. […]

For the sequence “GCTGAGTCTCCATATTGCC [G4 AS] (chemistry not given here)”, in the series with XIAP mRNA [1], the “XIAP RNA” value worked out at 0.48. The “reduction of XIAP mRNA level compared to untreated control” value with XIAP mRNA [2] was found to be 55%. Also, in the series with pro-caspase-3, PARP, the “reduction of pro-caspase-3 protein levels compared to untreated control” value was 60%. Besides, the “down-regulation of XIAP protein in tumors vs control tumors” value in the series on human XIAP protein (15 mg/kg, day 21 or 24, P<0.005) is “approximately 85%”. For the same sequence, in the series with human XIAP protein (systemic administration), the “down-regulation of XIAP protein in tumor xenografts” value was found to be 85%.
